Reference: patent US20130123358A1, “Metabolic Benefits to Butyrate as a Chronic Diet Supplement” (priority 2009, published 2013)
Read-outs that look alike come from different tables or passages of the source.

Legend:
[1] = system: brown adipose tissue PGC-1α and UCP-1; assay: Brown adipose tissue morphology, qRT-PCR and immunoblot; type: in vivo, mouse
Procedure: Total RNA was extracted from frozen tissues (kept at −80° C.) using Tri-Reagent (T9424, Sigma) as described elsewhere (16). Taqman RT-PCR primer and probe were used to determine mRNA for PGC-1α (Mm00447183_m1), UCP-1 (Mm00494069_m1), PPARδ (Mm01305434_m1) and CPT1b (Mm00487200_m1). The reagents were purchased from Applied Biosystems (Foster City, Calif.). Mouse ribosome 18S rRNA_s1 (without intron-exon junction) was used as an internal control. Reaction was conducted with 7900 HT Fast real time PCR System (Applied Biosystems, Foster City, Calif.).
Fresh fat and muscles were collected and frozen in liquid nitrogen. The whole cell lysate protein was extract in lysis buffer with sonication and analyzed in western blot as described elsewhere (16). Antibodies were used in study of myoglobin (sc-25607, Santa Cruz), PGC-1 (sc-13068, Santa Cruz), Tubulin (ab7291, Abcam), myosin (M8421, Sigma), pAMPK (Thr 172, #2531, Cell signaling) and p-p38 (sc-7975, Santa Cruz). To detect multiple signals from one membrane, the membrane was stripped with a stripping buffer. Intensity of the immunoblot signal was quantified using a computer program, ImageJ 1.37v (NIH). The mean values of results from three experiments (6 mice each group) were presented. The antibodies to PGC-1α and UCP-1 were from Dr. Thomas Gettys at Pennington Biomedical Research Center, Baton Rouge, La.
Fresh tissues (muscle, fat and liver) were collected at 16 weeks of age after 12 weeks butyrate feeding and fixed in 10% neutral buffered formalin solution (HT50-1-2, Sigma). The tissue slides were obtained through serial cross-section cutting at 8 um thickness and processed with a standard procedure. Briefly, the slides were deparaffinated and stained in haematoxylin (#101542, Surgipath) for 15 min, and rinsed in water until sections are blue. Then, slides were stained in Eosin (E4009, Sigma), dehydrated quickly in 95% ethanol and treated with […]. The sections were mounted and photographed with Nikon microscope (Eclipse TS100, Japan).
In addition, the morphology and gene expression were examined in the brown fat of mice. Hematoxylin and eosin staining (H&E staining) was conducted on brown adipose tissues collected at 13 weeks on HFD. […] Compared to the control mice, the size of brown adipocytes was much smaller in the butyrate group (FIG. 4B), indicating a higher thermogenic activity that leads to the reduction in fat accumulation. Mitochondrial function is regulated by gene expression (24). To understand the molecular basis of the increased thermogenesis, the expression of two thermogenesis-related genes, such as PGC-1α and UCP-1, were examined in BAT. mRNA of both genes was increased in the butyrate-treated mice. Brown adipose tissues were collected at 13 weeks on HFD, and gene expression for PGC-1α and UCP-1 was examined by qRT-PCR. In addition, the corresponding proteins were assayed using a whole cell lysate (100 μg) resolved in SDS-PAGE and blotted with PGC-1α and UCP-1 antibodies. […] Data in FIGS. 4A-4D are presented as means±SE (n=9 mice). * P<0.05. This increase in gene expression provides a molecular basis for the enhanced thermogenesis by the butyrate treatment.

[2] = system: HDAC; assay: Histone deacetylase assay on muscle nuclear extracts of treated mice; type: in vivo, mouse; settings: butyrate 5% w/w in HFD, 16 weeks on HFD, muscle nuclear extracts
Procedure: Histone deacetylase assay were conducted according to the instruction from the manufacturer (#17-320, Upstate). Briefly, 10 ug of muscle nuclear extract (as an enzyme) was incubated with [3H]-acetyl CoA (#TRK688, Amersham) radio labeled histone H4 peptide (25,000 CPM, as a substrate) at 37° C. for 12 hours by shaking Released [3H]-acetate was measured using a scintillation counter. The nuclear extract was prepared according to a protocol described elsewhere (17). The muscle tissues were collected and snap-frozen in liquid nitrogen within 2 min of cervical dislocation of mice. Tissue samples were stored at −80° C. until further processing. The muscle sample of 200˜300 mg was cut into small pieces on dry ice and homogenized in 1 ml of lysate buffer. After centrifugation at 10,000 rpm for 1 minute at 4° C., the nucleus was pelleted and collected. After being washed, the nucleus pellet was treated with extraction buffer. The supernatant was collected for nuclear protein after centrifugation at 14,000 rpm for 5 minutes at 4° C.
Without wishing to be bound by this theory, one activity of butyrate could be related to inhibition of HDAC. Sodium butyrate inhibits the class I and class II histone deacetylases (HDACs). To test this possibility, HDAC activity was examined in the skeletal muscle of mice at 16 weeks on HFD (FIG. 7G). The assay was conducted with the nuclear extracts of muscle samples. […]

[3] = Butyrate concentration in plasma; type: in vivo; settings: mouse, oral, 5 % w/w in HFD, butyrate 5% w/w in HFD for 16 weeks
Procedure: The serum fatty acids including butyrate were examined using a protocol described elsewhere (18), and as described below in Example 10. The fatty acids in feces were determined using a protocol as described by Schwarz (19). Triglyceride and cholesterol were measured in the whole blood with the Cardiochek portable test system.
The butyrate concentration was analyzed in plasma collected from the butyrate and control groups in mice fed HFD for 16 weeks. In a fasted condition (overnight fast), the butyrate concentration was 7.23±0.93 μg/ml in the butyrate group and 5.71±0.38 μg/ml in the control. […] Data are presented as means±SE (n=6). * P<0.05; ** P<0.001.

[4] = butyrate 5% w/w in HFD 13 weeks, immunoblot
[5] = butyrate 5% w/w in HFD 13 weeks, qRT-PCR

Q: For `CCCC(=O)[O-].[Na+]` [sodium butyrate], which “size of brown adipocytes” value ([1]; butyrate 5% w/w in HFD 13 weeks vs control, H&E) is on record?
A: Its value is “much smaller”.

Q: And the “PGC-1α protein in brown fat” value [1, 4]?
A: Its value is “also increased”.

Q: And the “UCP-1 protein in brown fat” value [1, 4]?
A: The value was “also increased”.

Q: And the “PGC-1α mRNA in BAT” value [1, 5]?
A: Its value is “increased”.

Q: And the “UCP-1 mRNA in BAT” value [1, 5]?
A: The value was “increased”.

Q: What about the “HDAC activity in skeletal muscle, reduction” value [2] of the same molecule?
A: The value was 50%.

Q: What about the concentration at 16 weeks ([3]; fed, read-out: butyrate concentration in plasma, fed condition) of the same molecule?
A: Its concentration at 16 weeks is 9400 ± 1360 ng/mL.

Q: And the concentration at 16 weeks ([3]; overnight fast, read-out: butyrate concentration in plasma, fasted condition)?
A: The concentration at 16 weeks was 7230 ± 930 ng/mL.
